These results are taken from publication PMC6585933 (Clinical Pharmacology in Drug Development, 2018).

Series [1] is classed as in vivo, human. Particulars: for AUC: AUC0–tn; for AUC(0-inf): AUC0–∞.
For series [2] the following is noted: amenamevir plus ketoconazole vs amenamevir alone; cited from earlier work.
The conditions of series [3]: single oral dose of 200 mg ^14C‐amenamevir; ref unpublished data held by Maruho; cited from earlier work.
Series [4] has as its system human multidrug resistance transporter P‐glycoprotein (P‐gp). The following applies: ^14C‐amenamevir, cells expressing P‐gp; ref unpublished data held by Maruho; cited from earlier work.
The test system of series [5] is OATP1B1. The following applies: ^14C‐amenamevir, ref unpublished data held by Maruho; cited from earlier work.
For series [6] the following is noted: ^14C‐amenamevir in humans; ref unpublished data held by Maruho; cited from earlier work.
The format of series [7] is in vivo, human. The following applies: for CL/F, arithmetic mean / Tmax: plasma; for CL/F, arithmetic mean: n = 24; for Tmax: male, human, po.
The subject of series [8] is cytochrome P450 (CYP) 3A4/5. Particulars: human liver microsomes; ref unpublished data held by Maruho; cited from earlier work. (In general: Liver microsomes are vesicles of endoplasmic reticulum, rich in cytochrome P450 enzymes.)
Series [9] deals with CYP3A4/5. Particulars: read-out: half maximal inhibitory concentration, very weak or no inhibitory activity, ref unpublished data held by Maruho; cited from earlier work.
In series [10] the test system is OATP1B3. Particulars: ^14C‐amenamevir, ref unpublished data held by Maruho; cited from earlier work.
Series [11] relates to OAT3. Particulars: ^14C‐amenamevir, ref unpublished data held by Maruho; cited from earlier work.
The test system of series [12] is organic cation uptake transporter‐2. The following applies: ^14C‐amenamevir, organic cation uptake transporter‐2–expressing cells; ref unpublished data held by Maruho; cited from earlier work.
Series [13] relates to acyclovir‐resistant VZV strains. The following applies: in vitro; cited from earlier work.
Series [14] is classed as in vivo, human. The following applies: for CL/F, arithmetic mean: N = 24; for AUC0‐∞, ratio amenamevir with ritonavir vs amenamevir alone / Cmax, ratio amenamevir with ritonavir vs amenamevir alone: ritonavir 600 mg; for AUC: AUC0‐∞; for AUC / Cmax: LS mean, n = 24; for Tmax: po.
For series [15], the system named is OAT1. The following applies: ^14C‐amenamevir, ref unpublished data held by Maruho; cited from earlier work.
Series [16] deals with CYP3A4. The following applies: human hepatocytes, 1 to 100 μM; ref unpublished data held by Maruho; cited from earlier work.
For series [17] the following is noted: cited from earlier work.
The conditions of series [18]: saquinavir with a single concomitant dose of 600‐mg ritonavir; cited from earlier work.
[19] abbreviates: amenamevir 400 mg with ritonavir 600 mg.
Setting [20] is: amenamevir 1200 mg with ritonavir 600 mg.
[21] abbreviates: amenamevir 400‐mg or 1200‐mg with single 600‐mg dose of ritonavir.
Setting [22] is: male, human, plasma, 1200 mg, amenamevir 1200 mg alone.
[23] abbreviates: male, human, plasma, amenamevir 400 mg with ritonavir 600 mg.
[24] abbreviates: male, human, plasma, amenamevir 1200 mg with ritonavir 600 mg.
Where [25] appears, read: midazolam with rifampicin as inducer.
Setting [26] is: Day 12 midazolam 7.5 mg with amenamevir 400 mg vs Day 1 midazolam alone.
Setting [27] is: Day 19, midazolam 7.5 mg alone, 7 days after last amenamevir dose, n = 18.
[28] abbreviates: after amenamevir 400 mg once daily for 10 days.
Setting [29] is: male, human, plasma, oral, arithmetic mean, Day 12, midazolam 7.5 mg with amenamevir 400 mg (last of 10 daily doses), n = 18.
[30] abbreviates: male, human, plasma, oral, geometric mean, Day 12, midazolam 7.5 mg with amenamevir 400 mg (last of 10 daily doses), n = 18.
The mark [31] stands for this setting: male, human, plasma, oral, LS mean, Day 12, midazolam 7.5 mg with amenamevir 400 mg (last of 10 daily doses), n = 18.

Usually Tmax stands for the time at which the peak concentration occurs. For orientation: AUC means concentration integrated over time. For orientation: Cmax means the peak of the concentration-time curve. For orientation: half-life means how long it takes for the measured level to halve. What is called AUC(0-inf) is the area under the concentration-time curve extrapolated to infinity.

SMILES strings stand for the structures. Several values for one entry are separate records, joined by “and”; a condition that tells them apart may be missing. Equal entries are not always repeated. Where two headings read alike, the source gives them in different places. Where only a bound is given, the exact number is not on record here.

Turning to `OCc1ncc2n1-c1ccc(Cl)cc1C(c1ccccc1F)=NC2` [1‐hydroxymidazolam], in series [1] (metabolite after midazolam 7.5 mg with amenamevir 400 mg), the “plasma concentrations, influence of coadministration of amenamevir” value is reported as “not influenced”.

Take `Cc1cccc(C)c1N(CC(=O)Nc1ccc(-c2ncon2)cc1)C(=O)C1CCS(=O)(=O)CC1` [amenamevir]: in [2], the “geometric mean ratio for AUCinf (90%CI)” value is on record as 2.58 (90%CI, 2.32‐2.87). The “geometric mean ratio for Cmax (90%CI)” value in series [2] is given as 1.30 (90%CI, 1.17‐1.45). For the same compound, the “^14C radioactivity recovered in feces” value in series [3] is on record as 74.6%. Also, in [4], the “substrate of the human multidrug resistance P‐gp transporter” value is listed as “is a substrate”. The “uptake into transporter‐expressing cells” value in series [5], in [10], in series [11], in series [12] and in series [15] was “no uptake” each time. Further, the plasma protein binding entry in series [6] is “about 75%”. For the same compound, the “CL/F, arithmetic mean” value in series [7] (amenamevir 400 mg single oral dose alone (control)) was determined as 17.7 L/h; in series [7] (amenamevir 1200 mg single oral dose alone (control)), 25.7 L/h; in series [14] (amenamevir 400 mg single oral dose alone, plasma) it was 18.3 L/h; in [14] (amenamevir 400 mg with single dose ritonavir 600 mg), 6.8 L/h; in [14] (amenamevir 1200 mg single oral dose alone, plasma) it was 25.7 L/h; in [14] (amenamevir 1200 mg with single dose ritonavir 600 mg) it was 7.6 L/h. Besides, the “geometric mean (90%CI) AUC0‐∞ as % of that after amenamevir alone” value in [7] (amenamevir 1200 mg with cyclosporine 100 mg twice daily) was ~79(73, 85) % and ~79%. In addition, the Tmax was found to be 3 h in series [7] (400 mg); 3 h in series [7] (1200 mg); 3 h in series [14] (male, human, plasma, 400 mg); 3 h in series [14] (male, human, plasma, 1200 mg). Further, in [8], the “role of CYP3A4/5 in the metabolism of amenamevir” value is “main isozymes”. In series [9], the IC50 is over 100 µM. Besides, in series [13], the “activity against acyclovir‐resistant VZV strains” value is given as “good activity”. The “geometric mean AUC0‐∞, times higher than after amenamevir alone” value is “about 2.6 times higher” in series [14] (setting [19]) and about 3.3 times higher in [14] (setting [20]). Also, the “geometric mean Cmax, times higher than after amenamevir alone” value in series [14] (setting [19]) is recorded as “about 1.4 times higher”; in series [14] (setting [20]) it was about 1.6 times higher. For the same compound, the entries for the “AUC0‐∞, ratio amenamevir with ritonavir vs amenamevir alone” value in series [14] (amenamevir 400 mg) and in series [14] (amenamevir 1200 mg) were 260% and 334%, respectively. In addition, the “Cmax, ratio amenamevir with ritonavir vs amenamevir alone” value in series [14] (amenamevir 400 mg) was found to be 136%; in series [14] (amenamevir 1200 mg), 163%. Further, in series [14] (setting [21]), the “increase in AUC” value is over 3 fold. For the same compound, in [14] (setting [21]), the “increase in Cmax” value is recorded as “about 1.5 fold”. Besides, the AUC in series [14] (male, human, plasma, 400 mg, amenamevir 400 mg alone) came to 23200 ng·h/mL; in series [14] (setting [22]) it was 48500 ng·h/mL; in series [14] (setting [23]) it was 60200 ng·h/mL; in series [14] (setting [24]), 162000 ng·h/mL. Further, the Cmax was 3800 ng/mL in series [14] (setting [22]); 2520 ng/mL in [14] (setting [23]); 6210 ng/mL in [14] (setting [24]); 1850 ng/mL in series [14] (male, human, plasma, oral, 400 mg, amenamevir 400 mg alone). This compound also had a half-life in series [14] (male, human, plasma, geometric mean elimination half‐life, amenamevir alone, irrespective of the dose (400 mg and 1200 mg)) of about 7 h. Moreover, the entries for the “treatment‐emergent adverse event headache, frequency” value in [14] (with 400‐mg amenamevir (ritonavir study group)) and in [14] (with 1200‐mg amenamevir (ritonavir study group)) were 16.7% and 29.2%, respectively. In addition, the “induction of CYP3A4” value in [16] was “showed the potential to induce CYP3A4”.

Consider `Cc1ncc2n1-c1ccc(Cl)cc1C(c1ccccc1F)=NC2` [midazolam], for which the “mean elimination half‐life” value in series [17] (midazolam before rifampicin) was 3.2 h. The “reduction of AUC” value in series [17] (setting [25]) was 64 fold. The “reduction of Cmax” value in [17] (setting [25]) is 27 fold. Moreover, the “reduction in plasma concentrations of midazolam” value in series [1] (CYP3A‐inducing effect of amenamevir) was 52%. Besides, the “CL/F, arithmetic mean” value is listed as 68.5 L/h in series [1] (Day 1, midazolam 7.5 mg oral alone (control), plasma, n = 18); 134.3 L/h in series [1] (Day 12, midazolam 7.5 mg with amenamevir 400 mg (last of 10 daily doses), n = 18); 63 L/h in series [1] (setting [27]); 65.2 L/h in series [1] (Day 26, midazolam 7.5 mg alone, 14 days after last amenamevir dose, n = 18). Further, in series [1] (setting [26]), the “AUC0–∞, LS mean ratio vs control (90%CI)” value is reported as about 51%. In addition, the “Cmax, LS mean ratio vs control (90%CI)” value in series [1] (setting [26]) is recorded as “about 68%”. Moreover, in series [1] (setting [27]), the “Tmax, median” value was 0.5 h. The figures for the “AUC0–∞, LS mean ratio vs control” value in [1] (Day 19 midazolam alone vs Day 1 midazolam alone) and in [1] (Day 26 midazolam alone vs Day 1 midazolam alone) were 110% and 108%, respectively. Besides, the “reduction of Cmax of midazolam” value in series [1] (setting [28]) is “about 32%”. Also, the “reduction of average concentrations (AUC) of midazolam” value in series [1] (setting [28]) is listed as “about 51%”. Besides, the AUC came to 59 ng·h/mL in [1] (setting [29]) and 56.7 ng·h/mL in [1] (setting [30]). For the same compound, the AUC(0-inf) was 58 ng·h/mL in [1] (setting [31]), 60.3 ng·h/mL in [1] (setting [29]) and 58 ng·h/mL in series [1] (setting [30]). Also, the Cmax in series [1] (setting [31]) amounted to 23 ng/mL; in series [1] (setting [29]) it was 24.5 ng/mL; in series [1] (setting [30]) it was 23.4 ng/mL. Moreover, the half-life in series [1] (male, human, plasma, oral, t1/2, arithmetic mean, Day 12, midazolam 7.5 mg with amenamevir 400 mg (last of 10 daily doses), n = 18) was 3.7 h. The Tmax in series [1] (male, human, plasma, po, 7.5 mg) came to 0.5 h.

In the case of `CC(C)c1nc(CN(C)C(=O)N[C@H](C(=O)N[C@@H](Cc2ccccc2)C[C@H](O)[C@H](Cc2ccccc2)NC(=O)OCc2cncs2)C(C)C)cs1` [ritonavir, reference compound], the “t1/2, geometric mean” value in [14] (ritonavir 600 mg single dose with amenamevir 400 mg, n 24) turned out to be 4.5 h.

Take `CC(C)(C)NC(=O)[C@@H]1C[C@@H]2CCCC[C@@H]2CN1C[C@@H](O)[C@H](Cc1ccccc1)NC(=O)[C@H](CC(N)=O)NC(=O)c1ccc2ccccc2n1` [saquinavir]: the “increase of plasma concentrations” value in series [18] is over 50 fold.
